Test results published in US20040204577A1, “Novel peptide-forming enzyme gene” (Ajinomoto Co., Inc., priority 2003, published 2004).
Where a SMILES comes first, the peptide text is derived from it.

Tests used:
[1] = system: peptide-forming enzyme (Mono S fraction enzyme); test: Enzyme substrate specificity (1)-(10), (13), (14): peptide production; assay type: biochemical, Empedobacter brevis; settings: pH 9.0, 25° C., 3 hours
How it was run: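 Mono S enzyme fraction in 100 mM borate buffer (pH 9.0) with 10 mM EDTA and 100 mM carboxy component (amino acid methyl esters or amides); amine components (L-glutamine, amino acids, amino acid amides or methylamine) at 150 mM, or 200 mM L-glutamine with varied esters. Reactions ran at 25° C for 2–3 hours; 0.1% Tween-80 added for Trp/Tyr-OMe.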

[2] = system: enzyme derived from Sphingobacterium sp. strain FERM BP-8124 (SP-Sepharose HP fraction enzyme); test: Enzyme substrate specificity (11), (12): peptide production; assay type: biochemical; settings: amides and methylamine; carboxy component 100 mM, amine component 150 mM, 0.33 units enzyme, pH 9.0, 25° C., 1.5 hours
How it was run: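 Peptide and oligopeptide formation catalysed by SP-Sepharose HP-fraction enzyme from Sphingobacterium sp. FERM BP-8124; carboxy components used as hydrochloride salts, 0.1% Tween-80 final added with L-Tyr-OMe. Products quantified; "+" denotes detected but unquantified (no standard), "tr" trace.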

Formed peptide ([1]; 100 mM L-alanine methyl ester hydrochloride, L-amino acid 150 mM): 79.3 mM
Formed peptide ([1]; L-amino acid amide hydrochloride as carboxy component 100 mM, L-amino acid 150 mM): 7.6 mM
Formed peptide ([1]; L-amino acid methyl ester hydrochloride 100 mM, 150 mM L-glutamine): 74.6 mM
Produced peptide (Table 15-4) [2]: 0.3 mM
Structure (SMILES): C[C@H](N)C(=O)N[C@@H](CCC(N)=O)C(=O)O [L-Ala-L-Gln, L-alanyl-L-glutamine] (H-Ala-Gln-OH)
